The record followed here is ChEMBL document CHEMBL1681644, “Scaffold oriented synthesis. Part 3: design, synthesis and biological evaluation of novel 5-substituted indazoles as potent and selective kinase inhibitors employing [2+3] cycloadditions” (Bioorg Med Chem Lett, 2011).

By Ki is commonly meant a measure of affinity in units of concentration, obtained from inhibition or displacement. A high value points to weaker binding.

In assay [1] the target is Serine/threonine-protein kinase pim-1 (Homo sapiens, UniProt P11309). Put plainly: Inhibition of Pim1 after 1 hr using biotinylated AL1peptide as substrate.
Sequence of Serine/threonine-protein kinase pim-1 (P11309 whole entry): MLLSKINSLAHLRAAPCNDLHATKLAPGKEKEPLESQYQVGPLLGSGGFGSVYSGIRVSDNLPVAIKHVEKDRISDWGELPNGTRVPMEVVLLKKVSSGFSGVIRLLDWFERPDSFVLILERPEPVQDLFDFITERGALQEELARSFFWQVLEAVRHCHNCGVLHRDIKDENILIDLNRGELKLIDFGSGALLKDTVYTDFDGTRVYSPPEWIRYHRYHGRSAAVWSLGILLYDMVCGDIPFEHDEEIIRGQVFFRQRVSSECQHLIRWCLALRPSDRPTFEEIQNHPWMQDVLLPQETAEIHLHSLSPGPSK
The target in assay [2] is Epidermal growth factor receptor (Homo sapiens, UniProt P00533).
Sequence of Epidermal growth factor receptor (P00533 whole entry): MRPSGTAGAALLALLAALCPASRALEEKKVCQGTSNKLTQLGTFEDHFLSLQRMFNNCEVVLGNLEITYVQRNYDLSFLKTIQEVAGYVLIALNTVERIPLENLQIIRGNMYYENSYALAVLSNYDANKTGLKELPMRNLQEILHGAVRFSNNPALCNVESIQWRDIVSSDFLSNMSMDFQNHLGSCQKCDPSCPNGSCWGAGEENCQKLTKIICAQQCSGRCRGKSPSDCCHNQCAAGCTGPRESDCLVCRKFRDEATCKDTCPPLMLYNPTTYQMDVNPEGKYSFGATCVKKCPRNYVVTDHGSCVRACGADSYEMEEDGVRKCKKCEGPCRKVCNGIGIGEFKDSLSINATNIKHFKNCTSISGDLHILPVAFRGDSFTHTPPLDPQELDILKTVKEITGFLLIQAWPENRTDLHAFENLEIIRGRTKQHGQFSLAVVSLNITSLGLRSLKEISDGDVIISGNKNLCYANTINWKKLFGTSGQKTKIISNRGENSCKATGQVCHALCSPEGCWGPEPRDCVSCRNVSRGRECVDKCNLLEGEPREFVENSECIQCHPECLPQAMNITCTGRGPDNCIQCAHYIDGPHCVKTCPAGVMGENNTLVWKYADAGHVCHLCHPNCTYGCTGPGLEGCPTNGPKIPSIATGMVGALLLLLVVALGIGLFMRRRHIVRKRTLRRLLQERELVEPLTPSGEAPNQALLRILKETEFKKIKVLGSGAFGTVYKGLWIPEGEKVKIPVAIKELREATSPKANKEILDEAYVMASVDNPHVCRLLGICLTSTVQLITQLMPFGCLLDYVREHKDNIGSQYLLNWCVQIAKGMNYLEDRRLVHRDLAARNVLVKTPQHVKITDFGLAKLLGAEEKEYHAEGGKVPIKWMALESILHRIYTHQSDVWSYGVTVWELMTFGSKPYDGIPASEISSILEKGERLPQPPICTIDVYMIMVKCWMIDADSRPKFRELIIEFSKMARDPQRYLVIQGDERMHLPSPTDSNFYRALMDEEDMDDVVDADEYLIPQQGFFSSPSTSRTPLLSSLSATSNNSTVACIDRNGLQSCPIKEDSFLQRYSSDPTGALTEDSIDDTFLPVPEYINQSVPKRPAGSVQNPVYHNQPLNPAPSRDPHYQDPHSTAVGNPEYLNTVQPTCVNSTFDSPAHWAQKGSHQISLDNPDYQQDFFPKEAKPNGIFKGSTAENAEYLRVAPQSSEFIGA
Description: Inhibition of EGFR after 1 hr
The target of assay [3] is Rho-associated protein kinase 2 (Homo sapiens, UniProt O75116). Put plainly: Inhibition of Rock2 after 1 hr using biotinylated longS peptide as substrate.
Assay [4] concerns the target Vascular endothelial growth factor receptor 2 (Homo sapiens, UniProt P35968). Put plainly: Inhibition of KDR after 1 hr.
Assay [5] concerns the target Serine/threonine-protein kinase PAK 4 (Homo sapiens, UniProt O96013). Put plainly: Inhibition of Pak4 after 1 hr using biotinylated L15 peptide as substrate.
The target of assay [6] is Tyrosine-protein kinase JAK2 (Homo sapiens, UniProt O60674). Nature of the assay: Inhibition of JAK2 after 1 hr using biotinylated PDKtide as substrate.
Sequence of Tyrosine-protein kinase JAK2 (O60674 whole entry): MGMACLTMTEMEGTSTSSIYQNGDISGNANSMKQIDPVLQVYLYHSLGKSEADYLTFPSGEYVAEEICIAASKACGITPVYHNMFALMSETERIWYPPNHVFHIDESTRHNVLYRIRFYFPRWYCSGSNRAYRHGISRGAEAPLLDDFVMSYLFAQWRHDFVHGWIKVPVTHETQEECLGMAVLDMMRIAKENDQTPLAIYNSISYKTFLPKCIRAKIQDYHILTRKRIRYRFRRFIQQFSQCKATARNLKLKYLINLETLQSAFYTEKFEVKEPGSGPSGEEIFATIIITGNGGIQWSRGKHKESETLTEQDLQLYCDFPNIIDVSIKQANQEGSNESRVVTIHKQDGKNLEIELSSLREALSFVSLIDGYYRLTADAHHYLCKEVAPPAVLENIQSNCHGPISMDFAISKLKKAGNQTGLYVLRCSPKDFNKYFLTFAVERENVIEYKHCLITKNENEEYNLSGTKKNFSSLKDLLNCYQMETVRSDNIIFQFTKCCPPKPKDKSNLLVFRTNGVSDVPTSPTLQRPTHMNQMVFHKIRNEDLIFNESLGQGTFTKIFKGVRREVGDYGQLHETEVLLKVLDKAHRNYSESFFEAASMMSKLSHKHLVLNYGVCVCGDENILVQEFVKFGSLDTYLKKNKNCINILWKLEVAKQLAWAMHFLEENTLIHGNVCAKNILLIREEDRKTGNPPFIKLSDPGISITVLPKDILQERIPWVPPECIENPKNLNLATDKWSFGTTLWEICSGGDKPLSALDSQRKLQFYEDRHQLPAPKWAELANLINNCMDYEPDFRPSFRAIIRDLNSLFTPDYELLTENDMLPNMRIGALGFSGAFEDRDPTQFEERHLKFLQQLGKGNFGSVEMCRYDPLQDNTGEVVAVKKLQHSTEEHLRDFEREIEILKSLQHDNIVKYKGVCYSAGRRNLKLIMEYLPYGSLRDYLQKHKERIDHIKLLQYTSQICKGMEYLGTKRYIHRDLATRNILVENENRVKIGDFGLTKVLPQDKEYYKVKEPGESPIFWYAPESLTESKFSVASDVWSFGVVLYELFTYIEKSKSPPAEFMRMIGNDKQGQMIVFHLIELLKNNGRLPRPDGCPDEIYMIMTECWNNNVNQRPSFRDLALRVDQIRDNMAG
For assay [7], the target named is Glycogen synthase kinase-3 beta (Homo sapiens, UniProt P49841).
Sequence of Glycogen synthase kinase-3 beta (P49841 whole entry): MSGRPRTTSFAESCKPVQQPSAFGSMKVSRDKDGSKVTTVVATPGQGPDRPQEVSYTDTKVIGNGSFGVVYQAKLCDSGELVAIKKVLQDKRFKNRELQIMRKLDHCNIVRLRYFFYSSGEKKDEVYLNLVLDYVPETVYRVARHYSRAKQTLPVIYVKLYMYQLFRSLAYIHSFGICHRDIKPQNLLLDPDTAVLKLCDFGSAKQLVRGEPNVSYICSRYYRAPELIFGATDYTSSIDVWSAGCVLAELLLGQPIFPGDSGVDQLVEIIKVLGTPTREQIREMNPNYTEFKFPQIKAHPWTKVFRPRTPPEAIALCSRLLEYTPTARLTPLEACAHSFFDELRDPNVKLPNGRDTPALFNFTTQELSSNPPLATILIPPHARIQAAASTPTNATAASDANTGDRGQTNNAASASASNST
Description: Inhibition of GSK3-beta after 1 hr

Sequence of Vascular endothelial growth factor receptor 2 (P35968 whole entry): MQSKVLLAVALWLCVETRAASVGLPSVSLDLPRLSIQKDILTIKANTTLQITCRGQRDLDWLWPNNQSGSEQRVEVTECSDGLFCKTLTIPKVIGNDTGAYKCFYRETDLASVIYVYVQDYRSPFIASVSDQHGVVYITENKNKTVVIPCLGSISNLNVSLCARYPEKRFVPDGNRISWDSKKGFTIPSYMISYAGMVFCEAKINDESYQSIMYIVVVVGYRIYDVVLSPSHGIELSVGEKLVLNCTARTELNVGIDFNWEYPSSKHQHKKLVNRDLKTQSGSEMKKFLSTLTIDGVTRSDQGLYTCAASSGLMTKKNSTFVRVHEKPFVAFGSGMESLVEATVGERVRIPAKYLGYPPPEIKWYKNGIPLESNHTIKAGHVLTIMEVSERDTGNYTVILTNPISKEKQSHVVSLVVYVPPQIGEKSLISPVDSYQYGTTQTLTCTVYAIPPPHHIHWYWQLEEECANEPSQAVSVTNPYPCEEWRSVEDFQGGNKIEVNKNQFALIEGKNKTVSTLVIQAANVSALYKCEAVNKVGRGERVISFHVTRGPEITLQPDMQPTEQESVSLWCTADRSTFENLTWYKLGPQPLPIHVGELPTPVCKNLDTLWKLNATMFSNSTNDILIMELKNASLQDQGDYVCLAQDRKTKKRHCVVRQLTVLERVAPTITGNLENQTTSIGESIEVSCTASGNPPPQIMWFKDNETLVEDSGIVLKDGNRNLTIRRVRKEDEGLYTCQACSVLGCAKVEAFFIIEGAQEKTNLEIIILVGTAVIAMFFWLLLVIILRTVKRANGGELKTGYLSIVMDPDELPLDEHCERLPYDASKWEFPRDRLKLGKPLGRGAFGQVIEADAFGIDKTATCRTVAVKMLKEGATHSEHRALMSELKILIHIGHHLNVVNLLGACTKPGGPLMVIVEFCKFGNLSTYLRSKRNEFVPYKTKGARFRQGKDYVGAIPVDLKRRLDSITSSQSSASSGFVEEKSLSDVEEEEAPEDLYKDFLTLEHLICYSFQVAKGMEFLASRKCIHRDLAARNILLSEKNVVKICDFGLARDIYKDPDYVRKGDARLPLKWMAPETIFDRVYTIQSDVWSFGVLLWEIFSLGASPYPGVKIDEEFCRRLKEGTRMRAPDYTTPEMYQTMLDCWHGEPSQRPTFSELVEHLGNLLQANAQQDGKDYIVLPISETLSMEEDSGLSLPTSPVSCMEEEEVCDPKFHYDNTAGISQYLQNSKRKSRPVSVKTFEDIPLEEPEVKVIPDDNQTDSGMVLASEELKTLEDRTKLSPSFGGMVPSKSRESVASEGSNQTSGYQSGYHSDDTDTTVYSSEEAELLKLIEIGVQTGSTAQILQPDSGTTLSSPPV
Sequence of Serine/threonine-protein kinase PAK 4 (O96013 whole entry): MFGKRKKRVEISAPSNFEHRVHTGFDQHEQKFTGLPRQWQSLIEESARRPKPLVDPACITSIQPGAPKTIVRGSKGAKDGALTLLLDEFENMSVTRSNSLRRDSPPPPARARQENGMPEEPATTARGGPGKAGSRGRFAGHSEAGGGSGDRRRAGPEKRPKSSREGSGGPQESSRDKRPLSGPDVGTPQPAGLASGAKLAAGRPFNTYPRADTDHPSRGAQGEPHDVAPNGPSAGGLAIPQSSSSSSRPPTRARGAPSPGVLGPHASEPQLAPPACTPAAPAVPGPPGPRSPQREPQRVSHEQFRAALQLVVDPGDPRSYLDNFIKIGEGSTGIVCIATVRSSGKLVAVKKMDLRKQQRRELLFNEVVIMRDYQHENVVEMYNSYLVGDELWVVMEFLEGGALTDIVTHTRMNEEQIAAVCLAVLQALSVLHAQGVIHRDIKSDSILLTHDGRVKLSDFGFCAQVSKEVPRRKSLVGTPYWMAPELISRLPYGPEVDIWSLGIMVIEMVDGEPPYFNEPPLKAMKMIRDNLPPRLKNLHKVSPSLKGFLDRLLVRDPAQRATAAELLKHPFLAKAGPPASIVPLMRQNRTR

Regarding `c1cc2[nH]ncc2cc1-n1cc(CC2CCCCC2)nn1`, the inhibitory constant (Ki) in assay [1] was more than 8.57 µM; in assay [2], more than 1.8 µM; in assay [3], 0.1 µM; in assay [4] it was more than 8.88 µM; in assay [5], more than 3.75 µM; in assay [6] it was 0.281 µM. This compound also registered a Ki in assay [7] of 0.891 µM.
Turning to `OCCCc1cn(-c2ccc3[nH]ncc3c2)nn1`, the Ki was more than 8.57 µM in assay [1]; more than 1.8 µM in assay [2]; 0.23 µM in assay [3]; more than 8.88 µM in assay [4]; more than 3.75 µM in assay [5]; 1.45 µM in assay [6]. Affinity in assay [7] was put at a Ki of 5.22 µM.
As to `Fc1cccc(Cn2cc(-c3ccc4[nH]ncc4c3)nn2)c1`, the inhibition constant (Ki) in assay [1] is 12 µM; in assay [3], 0.18 µM; in assay [7] it was 0.026 µM.
As for `Nc1n[nH]c2ccc(-c3cc(Cc4ccccc4)no3)cc12`, the Ki came out at 5.16 µM in assay [1]; 0.016 µM in assay [3]; 3.29 µM in assay [4]; 3.59 µM in assay [5]; 0.016 µM in assay [6]; 0.45 µM in assay [7].
In the case of `c1ccc(CCCc2cn(-c3ccc4[nH]ncc4c3)nn2)cc1`, the Ki was more than 8.57 µM in assay [1]; more than 1.8 µM in assay [2]; 0.062 µM in assay [3]; more than 8.88 µM in assay [4]; more than 3.75 µM in assay [5]; 0.644 µM in assay [6]. Also, the affinity in assay [7], expressed as Ki, was 0.528 µM.
As for `Clc1cccc(Cn2cc(-c3ccc4[nH]ncc4c3)nn2)c1`, the Ki came out at 0.039 µM in assay [3], 13.1 µM in assay [4], 1.45 µM in assay [6] and 0.023 µM in assay [7].
On to `Fc1ccc(Cn2cc(-c3ccc4[nH]ncc4c3)nn2)cc1`, for which the Ki in assay [1] came out at 165 µM; in assay [3], 0.285 µM; in assay [7], 0.07 µM.
`Fc1ccccc1Cn1cc(-c2ccc3[nH]ncc3c2)nn1`: the Ki in assay [1] is 10.2 µM; in assay [3] it was 0.285 µM; in assay [4], more than 0.915 µM; in assay [5] it was 13.1 µM; in assay [7], 0.091 µM.
On to `c1cc2[nH]ncc2cc1-n1cc(C2CCCC2)nn1`, for which the Ki in assay [1] was more than 8.57 µM; in assay [2] it was more than 1.8 µM; in assay [3] it was 0.044 µM; in assay [4] it was more than 8.88 µM; in assay [5], more than 3.75 µM; in assay [6], 0.791 µM. In assay [7], affinity was put at a Ki of 1.3 µM.
The compound `CCCc1cc(-c2ccc3[nH]ncc3c2)on1` had a Ki in assay [7] of 2.53 µM.
For `COCc1cn(-c2ccc3[nH]ncc3c2)nn1`, the inhibition constant Ki in assay [1] is more than 8.57 µM; in assay [2], more than 1.8 µM; in assay [3] it was 0.635 µM; in assay [4] it was more than 8.88 µM; in assay [5], more than 3.75 µM; in assay [6], more than 1.45 µM. Besides, the Ki in assay [7] is more than 5.45 µM.
In the case of `Clc1ccccc1Cn1cc(-c2ccc3[nH]ncc3c2)nn1`, the Ki in assay [1] is 4.15 µM; in assay [3], 0.097 µM; in assay [6] it was more than 1.45 µM; in assay [7] it was 0.045 µM.
Turning to `c1ccc(Cc2cn(-c3ccc4[nH]ncc4c3)nn2)cc1`, in assay [7], the affinity, expressed as Ki, was 0.542 µM.
As for `c1cc2[nH]ncc2cc1-c1cc(CN2CCCCC2)no1`, the inhibition constant Ki in assay [6] is more than 1.45 µM; in assay [7], 3.81 µM.
As to `Cc1cccc(Cn2cc(-c3ccc4[nH]ncc4c3)nn2)c1`, the Ki is 0.375 µM in assay [3], more than 0.915 µM in assay [4] and 0.07 µM in assay [7].
On to `c1cc2n[nH]cc2cc1-c1c[nH]nn1`, for which the Ki is 2.22 µM in assay [1]; 0.209 µM in assay [3]; 3.55 µM in assay [4]; 69.9 µM in assay [5]; 1.45 µM in assay [6]; 0.448 µM in assay [7].
With `CCCc1cn(-c2ccc3[nH]ncc3c2)nn1`, the Ki in assay [1] was 8.36 µM; in assay [2], more than 1.8 µM; in assay [3], 0.108 µM; in assay [4] it was more than 8.88 µM; in assay [5], more than 3.75 µM; in assay [6], 0.756 µM. In assay [7], affinity was put at a Ki of 2.03 µM.
In the case of `CNC(=O)c1cc(-c2ccc3[nH]ncc3c2)on1`, the inhibitory constant (Ki) in assay [1] is 3.68 µM; in assay [3] it was 0.402 µM; in assay [4] it was more than 8.88 µM; in assay [5], more than 3.75 µM; in assay [7], 4.27 µM.
`c1cc2[nH]ncc2cc1-n1cc(C2CC2)nn1`: the Ki in assay [1] was more than 8.57 µM; in assay [2] it was more than 1.8 µM; in assay [3] it was 0.356 µM; in assay [4], more than 8.88 µM; in assay [5], more than 3.75 µM; in assay [6], 1.45 µM. In assay [7], affinity was put at a Ki of 3.47 µM.
On to `Clc1cccc(Cn2cc(-c3ccc4[nH]ncc4c3)nn2)c1Cl`, for which the inhibitory constant (Ki) in assay [1] turned out to be 20.3 µM; in assay [3], 0.015 µM; in assay [5] it was 67.6 µM; in assay [7], 0.048 µM.
Take `Clc1cc(Cl)cc(Cn2cc(-c3ccc4[nH]ncc4c3)nn2)c1`: the Ki was 41.5 µM in assay [1], 0.041 µM in assay [3], more than 0.915 µM in assay [4] and 0.028 µM in assay [7].
For `Clc1ccc(Cn2cc(-c3ccc4[nH]ncc4c3)nn2)cc1`, the Ki stood at 37.8 µM in assay [1], 0.068 µM in assay [3], 2.71 µM in assay [4] and 0.197 µM in assay [7].
Regarding `Clc1ccc(Cl)c(Cn2cc(-c3ccc4[nH]ncc4c3)nn2)c1`, the Ki turned out to be 36 µM in assay [1], 0.018 µM in assay [3], 127 µM in assay [4] and 0.016 µM in assay [7].
Regarding `c1ccc(CCc2cn(-c3ccc4[nH]ncc4c3)nn2)cc1`, the Ki in assay [1] is more than 8.57 µM; in assay [2], more than 1.8 µM; in assay [3] it was 0.019 µM; in assay [4] it was more than 8.88 µM; in assay [5] it was more than 3.75 µM; in assay [6] it was 0.898 µM. The compound also gave a Ki in assay [7] of 0.446 µM.
